The compounds below were run against T1, human recombinant P2X7 receptors (Homo sapiens, UniProt Q99572) (assay: Ethidium Accumulation Assay). Settings: HEK293 cells stably expressing human recombinant P2X7; blocking 1 mM ATP response; typically mean of more than one measurement; 'about' values; read-out: pIC50 in the Ethidium Accumulation Assay or a slightly modified version thereof (converted).
T1 construct: expressed in transfected cells
T1 sequence (Q99572 1-595): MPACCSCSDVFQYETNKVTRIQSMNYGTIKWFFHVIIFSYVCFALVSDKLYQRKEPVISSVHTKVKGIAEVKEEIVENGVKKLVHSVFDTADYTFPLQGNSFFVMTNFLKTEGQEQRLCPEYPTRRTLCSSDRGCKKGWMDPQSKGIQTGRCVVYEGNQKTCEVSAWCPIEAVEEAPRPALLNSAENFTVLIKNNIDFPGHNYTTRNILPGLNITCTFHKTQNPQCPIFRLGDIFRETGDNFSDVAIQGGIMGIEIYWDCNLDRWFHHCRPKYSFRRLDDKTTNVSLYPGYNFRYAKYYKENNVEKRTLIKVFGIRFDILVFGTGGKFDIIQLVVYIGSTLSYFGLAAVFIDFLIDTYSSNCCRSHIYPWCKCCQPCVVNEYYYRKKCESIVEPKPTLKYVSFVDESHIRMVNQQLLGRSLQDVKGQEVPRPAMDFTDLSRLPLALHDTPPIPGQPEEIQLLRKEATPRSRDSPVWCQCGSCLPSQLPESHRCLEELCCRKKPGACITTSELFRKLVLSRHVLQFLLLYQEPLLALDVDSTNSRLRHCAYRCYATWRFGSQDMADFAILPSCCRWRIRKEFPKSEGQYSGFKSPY
Type: cell-based
Procedure: Studies were performed using NaCl assay buffer of the following composition: 140 mM NaCl, 10 mM HEPES [4-(2-hydroxyethyl)-1-piperazine-1-ethanesulfonic acid], 5 mM N-methyl-D-glucamine, 5.6 mM KCl, 10 mM D-glucose, 0.5 mM CaCl2(pH 7.4).
Human Embryonic Kidney (HEK) 293 cells, stably expressing human recombinant P2X7 receptors, were grown in poly-D-lysine pretreated 96 well plates for 18-24 hours. (The cloning of the human P2X7 receptor is described in U.S. Pat. No. 6,133,434, e.g. see Example 3 therein). The cells were washed twice with 350 μl of the assay buffer, before addition of 50 μl of the assay buffer containing the putative P2X7 receptor antagonist compound. (A small amount of dimethyl sulfoxide, for initially dissolving the compound, is optionally used and present in this 50 μl test compound sample.) The cells were then incubated at room temperature (19-21° C.) for 30 min before addition of ATP and ethidium (100 μM final assay concentration). The ATP concentration was chosen to be close to the EC80 for the receptor type and was 1 mM for studies on the human P2X7 receptor. Incubations were continued for 8 or 16 min and were terminated by addition of 25 μl of 1.3M sucrose containing 4 mM of the P2X7 receptor antagonist Reactive Black 5 (Aldrich). Cellular accumulation of ethidium was determined by measuring fluorescence (excitation wavelength of 530 nm and emission wavelength of 620 nm) from below the plate with a Can berra Packard Fluorocount (14 Station Road, Pangbourne, Reading, Berkshire RG8 7AN, United Kingdom) or a FlexStation II 384 from Molecular Molecular Devices (660-665 Eskdale Road, Wokingham, Berkshire RG41 5TS, United Kingdom). Antagonist plC50 values for blocking ATP responses were determined using iterative curve fitting techniques.

SMILES	IC50 [nM]
CCN1C(C(=O)NCc2cccc(Cl)c2C)CCS1(=O)=O (stereo not shown) [Example 20, N-[(3-chloro-2-methylphenyl)methyl]-2-ethyl-3-isothiazolidinecarboxamide 1,1-dioxide]	10 to 316
CC(C)CN1C(C(=O)NCc2ccc(Cl)cc2Cl)CCS1(=O)=O (stereo not shown) [Example 4, N-[(2,4-dichlorophenyl)methyl]-2-(2-methylpropyl)-3-isothiazolidinecarboxamide 1,1-dioxide]	10 to 316
CCN1C(C(=O)NCc2ccc(Cl)cc2Cl)CCS1(=O)=O (stereo not shown) [Example 24, N-[(2,4-dichlorophenyl)methyl]-2-ethyl-3-isothiazolidinecarboxamide 1,1-dioxide]	10 to 316
CC(C)N1C(C(=O)NCc2ccc(F)cc2Cl)CCCS1(=O)=O (stereo not shown) [Example 43, N-[(2-chloro-4-fluorophenyl)methyl]-2-(1-methylethyl)tetrahydro-2H-1,2-thiazine-3-carboxamide 1,1-dioxide]	3980 to 15800
CC(C)N1C(C(=O)NCc2ccc(F)cc2Cl)CCS1(=O)=O (stereo not shown) [Example 22, N-[(2-chloro-4-fluorophenyl)methyl]-2-(1-methylethyl)-3-isothiazolidinecarboxamide 1,1-dioxide]	10 to 316
CCN1C(C(=O)NCc2ccccc2Cl)CCCS1(=O)=O (stereo not shown) [Example 39, N-[(2-chlorophenyl)methyl]-2-ethyltetrahydro-2H-1,2-thiazine-3-carboxamide 1,1-dioxide]	3980 to 15800
CCN1C(C(=O)NCc2cccc(C(F)(F)F)c2Cl)CCS1(=O)=O (stereo not shown) [Example 32, N-{[2-chloro-3-(trifluoromethyl)phenyl]methyl}-2-ethyl-3-isothiazolidinecarboxamide 1,1-dioxide]	10 to 316
Cc1c(Cl)cccc1CNC(=O)C1CCS(=O)(=O)N1C(C)C (stereo not shown) [Example 18, N-[(3-chloro-2-methylphenyl)methyl]-2-(1-methylethyl)-3-isothiazolidinecarboxamide 1,1-dioxide]	10 to 316
CC(C)N1C(C(=O)NCc2ccc(Cl)cc2Cl)CCS1(=O)=O (stereo not shown) [Example 27, N-[(2,4-dichlorophenyl)methyl]-2-(1-methylethyl)-3-isothiazolidinecarboxamide 1,1-dioxide]	10 to 316
CCN1C(C(=O)NCc2ccc(Cl)cc2Cl)CCCS1(=O)=O (stereo not shown) [Example 36, N-[(2,4-dichlorophenyl)methyl]-2-ethyltetrahydro-2H-1,2-thiazine-3-carboxamide 1,1-dioxide]	10 to 316
CN1C(C(=O)NCc2ccc(F)cc2Cl)CCS1(=O)=O (stereo not shown) [Example 3, N-[(2-chloro-4-fluorophenyl)methyl]-2-methyl-3-isothiazolidinecarboxamide 1,1-dioxide]	10 to 316
Cc1c(Cl)cccc1CNC(=O)C1CCS(=O)(=O)N1C (stereo not shown) [Example 17, N-[(3-chloro-2-methylphenyl)methyl]-2-methyl-3-isothiazolidinecarboxamide 1,1-dioxide]	10 to 316
CC(C)N1C(C(=O)NCc2ccccc2Cl)CCCS1(=O)=O (stereo not shown) [Example 44, N-[(2-chlorophenyl)methyl]-2-(1-methylethyl)tetrahydro-2H-1,2-thiazine-3-carboxamide 1,1-dioxide]	3980 to 15800
Cc1cccc(Cl)c1CNC(=O)C1CCCS(=O)(=O)N1C(C)C (stereo not shown) [Example 41, N-[(2-chloro-6-methylphenyl)methyl]-2-(1-methylethyl)tetrahydro-2H-1,2-thiazine-3-carboxamide 1,1-dioxide]	3980 to 15800
CC(C)N1C(C(=O)NCc2ccc(F)cc2C(F)(F)F)CCCS1(=O)=O (stereo not shown) [Example 47, N-{[4-fluoro-2-(trifluoromethyl)phenyl]methyl}-2-(1-methylethyl)tetrahydro-2H-1,2-thiazine-3-carboxamide 1,1-dioxide]	3980 to 15800
CC(C)CN1C(C(=O)NCc2ccccc2Cl)CCS1(=O)=O (stereo not shown) [Example 11, N-[(2-chlorophenyl)methyl]-2-(2-methylpropyl)-3-isothiazolidinecarboxamide 1,1-dioxide]	3980 to 15800
CN1C(C(=O)NCc2cccc(C(F)(F)F)c2Cl)CCS1(=O)=O (stereo not shown) [Example 29, N-{[2-chloro-3-(trifluoromethyl)phenyl]methyl}-2-methyl-3-isothiazolidinecarboxamide 1,1-dioxide]	10 to 316
CCN1C(C(=O)NCc2ccc(F)cc2C(F)(F)F)CCS1(=O)=O (stereo not shown) [Example 21, 2-ethyl-N-{[4-fluoro-2-(trifluoromethyl)phenyl]methyl}-3-isothiazolidinecarboxamide 1,1-dioxide]	10 to 316
CN1C(C(=O)NCc2ccc(Cl)cc2Cl)CCS1(=O)=O (stereo not shown) [Example 13, N-[(2,4-dichlorophenyl)methyl]-2-methyl-3-isothiazolidinecarboxamide 1,1-dioxide]	10 to 316
CCN1C(C(=O)NCc2ccc(F)c(F)c2Cl)CCS1(=O)=O (stereo not shown) [Example 31, N-[(2-chloro-3,4-difluorophenyl)methyl]-2-ethyl-3-isothiazolidinecarboxamide 1,1-dioxide]	10 to 316
CN1C(C(=O)NCc2ccc(F)cc2C(F)(F)F)CCCS1(=O)=O (stereo not shown) [Example 48, N-{[4-fluoro-2-(trifluoromethyl)phenyl]methyl}-2-methyltetrahydro-2H-1,2-thiazine-3-carboxamide 1,1-dioxide]	3980 to 15800
CCN1C(C(=O)NCc2ccc(F)cc2Cl)CCS1(=O)=O (stereo not shown) [Example 15, N-[(2-chloro-4-fluorophenyl)methyl]-2-ethyl-3-isothiazolidinecarboxamide 1,1-dioxide]	10 to 316
CN1C(C(=O)NCc2ccc(Cl)cc2Cl)CCCS1(=O)=O (stereo not shown) [Example 35, N-[(2,4-dichlorophenyl)methyl]-2-methyltetrahydro-2H-1,2-thiazine-3-carboxamide 1,1-dioxide]	10 to 316
CC(C)N1C(C(=O)NCc2ccc(F)c(F)c2F)CCCS1(=O)=O (stereo not shown) [Example 46, 2-(1-methylethyl)-N-[(2,3,4-trifluorophenyl)methyl]tetrahydro-2H-1,2-thiazine-3-carboxamide 1,1-dioxide]	3980 to 15800
CN1C(C(=O)NCc2ccc(F)c(F)c2Cl)CCS1(=O)=O (stereo not shown) [Example 30, N-[(2-chloro-3,4-difluorophenyl)methyl]-2-methyl-3-isothiazolidinecarboxamide 1,1-dioxide]	10 to 316

From US20100292224A1, “ISOTHIAZOLIDINE 1,1-DIOXIDE AND TETRAHYDRO-2H-1,2-THIAZINE 1,1-DIOXIDE DERIVATIVES AS P2X7 MODULATORS” (GLAXO GROUP LIMITED, priority 2007, published 2010)
